Test results taken from ChEMBL document CHEMBL4000224, “Cadiolides J-M, antibacterial polyphenyl butenolides from the Korean tunicate Pseudodistoma antinboja” (2017).
In brackets after ≈: the same amount, converted by molar mass. Activity calls are given as the source filed them. No cut-off for these calls is given here.

Key:
Format in all cases: functional
Staphylococcus aureus [1] = test: Anti-bacterial activity against methicillin-resistant Staphylococcus aureus CCARM 3090 by 2-fold microtiter broth dilution method
Escherichia coli = test: Anti-bacterial activity against Escherichia coli ATCC 11775 by 2-fold microtiter broth dilution method; conditions: DSM 30083 = JCM 1649 = ATCC 11775
Staphylococcus aureus [2] = test: Anti-bacterial activity against methicillin-resistant Staphylococcus aureus CCARM 3089 by 2-fold microtiter broth dilution method
Staphylococcus aureus [3] = test: Anti-bacterial activity against methicillin-resistant Staphylococcus aureus CCARM 3635 by 2-fold microtiter broth dilution method
Staphylococcus aureus [4] = test: Anti-bacterial activity against methicillin-resistant Staphylococcus aureus CCARM 3634 by 2-fold microtiter broth dilution method
Klebsiella pneumoniae = test: Anti-bacterial activity against Klebsiella pneumoniae ATCC 4352 by 2-fold microtiter broth dilution method
Staphylococcus aureus [5] = test: Anti-bacterial activity against methicillin-susceptible Staphylococcus aureus CCARM 0027 by 2-fold microtiter broth dilution method
Salmonella typhimurium = test: Anti-bacterial activity against Salmonella typhimurium ATCC 14028 by 2-fold microtiter broth dilution method; conditions: Salmonella enterica subsp. enterica serovar Typhimurium
Staphylococcus aureus [6] = test: Anti-bacterial activity against methicillin-susceptible Staphylococcus aureus CCARM 0205 by 2-fold microtiter broth dilution method
Staphylococcus aureus [7] = test: Anti-bacterial activity against methicillin-susceptible Staphylococcus aureus CCARM 0204 by 2-fold microtiter broth dilution method
Staphylococcus aureus [8] = test: Anti-bacterial activity against methicillin-susceptible Staphylococcus aureus CCARM 3640 by 2-fold microtiter broth dilution method

| Compound | MIC (Staphylococcus aureus [1]) [µg/mL] | Activity (Escherichia coli) | MIC (Staphylococcus aureus [2]) [µg/mL] | MIC (Staphylococcus aureus [3]) [µg/mL] | MIC (Staphylococcus aureus [4]) [µg/mL] | Activity (Klebsiella pneumoniae) | MIC (Staphylococcus aureus [5]) [µg/mL] | Activity (Salmonella typhimurium) | MIC (Staphylococcus aureus [6]) [µg/mL] | MIC (Staphylococcus aureus [7]) [µg/mL] | MIC (Staphylococcus aureus [8]) [µg/mL] |
| --- | --- | --- | --- | --- | --- | --- | --- | --- | --- | --- | --- |
| COc1c(Br)cc([C@H](O)C2=C(c3cc(Br)c(O)c(Br)c3)/C(=C/c3ccc(O)c(Br)c3)OC2=O)cc1Br | 2 (≈ 2.47 µM) | inactive | 2 (≈ 2.47 µM) | 1 (≈ 1.23 µM) | 2 (≈ 2.47 µM) | inactive | 1 (≈ 1.23 µM) | inactive | 0.5 (≈ 0.617 µM) | 1 (≈ 1.23 µM) | 1 (≈ 1.23 µM) |
| CN[C@H](CC(C)C)C(=O)N[C@H]1C(=O)N[C@@H](CC(N)=O)C(=O)N[C@H]2C(=O)N[C@H]3C(=O)N[C@H](C(=O)N[C@H](C(=O)O)c4cc(O)cc(O)c4-c4cc3ccc4O)[C@H](O)c3ccc(c(Cl)c3)Oc3cc2cc(c3O[C@@H]2O[C@H](CO)[C@@H](O)[C@H](O)[C@H]2O[C@H]2C[C@](C)(N)[C@H](O)[C@H](C)O2)Oc2ccc(cc2Cl)[C@H]1O [VANCOMYCIN] |  |  |  |  |  |  |  |  | < 0.13 | 0.25 (≈ 0.173 µM) | 0.25 (≈ 0.173 µM) |
| COc1ccc(C=C2OC(=O)C([C@@H](O)c3cc(Br)c(OC)c(Br)c3)=C2c2cc(Br)c(O)c(Br)c2)cc1Br | 4 (≈ 4.85 µM) | inactive | 8 (≈ 9.7 µM) | 4 (≈ 4.85 µM) | 4 (≈ 4.85 µM) | inactive | 4 (≈ 4.85 µM) | inactive | 2 (≈ 2.42 µM) | 4 (≈ 4.85 µM) | 4 (≈ 4.85 µM) |
| COc1ccc(C=C2OC(=O)C([C@@H](O)c3cc(Br)c(OC)c(Br)c3)=C2c2cc(Br)c(O)c(Br)c2)cc1 | 8 (≈ 10.7 µM) | inactive | 4 (≈ 5.36 µM) | 4 (≈ 5.36 µM) | 4 (≈ 5.36 µM) | inactive | 4 (≈ 5.36 µM) | inactive | 4 (≈ 5.36 µM) | 4 (≈ 5.36 µM) | 8 (≈ 10.7 µM) |
| COc1c(Br)cc([C@H](O)C2=C(c3ccc(O)c(Br)c3)/C(=C/c3cc(Br)c(O)c(Br)c3)OC2=O)cc1Br | 4 (≈ 4.93 µM) | inactive | 4 (≈ 4.93 µM) | 4 (≈ 4.93 µM) | 4 (≈ 4.93 µM) | inactive | 4 (≈ 4.93 µM) | inactive | 2 (≈ 2.47 µM) | 2 (≈ 2.47 µM) | 4 (≈ 4.93 µM) |
| C[C@]12C[C@@]34C=CC(=O)[C@@](C)(CCC(=O)Nc5c(O)ccc(C(=O)O)c5O)[C@@H]3[C@H](C[C@@H]1C4)O2 | 8 (≈ 18.1 µM) |  | 8 (≈ 18.1 µM) | 8 (≈ 18.1 µM) | 8 (≈ 18.1 µM) |  | 4 (≈ 9.06 µM) |  | 4 (≈ 9.06 µM) | 4 (≈ 9.06 µM) | 8 (≈ 18.1 µM) |
| O=C1O/C(=C\c2cc(Br)c(O)c(Br)c2)C(c2cc(Br)c(O)c(Br)c2)=C1[C@@H](O)c1cc(Br)c(O)c(Br)c1 | 1 (≈ 1.14 µM) | inactive | 1 (≈ 1.14 µM) | 1 (≈ 1.14 µM) | 1 (≈ 1.14 µM) | inactive | 2 (≈ 2.28 µM) | inactive | 1 (≈ 1.14 µM) | 1 (≈ 1.14 µM) | 1 (≈ 1.14 µM) |
| CCCCCCCCCC(=O)N[C@@H](Cc1c[nH]c2ccccc12)C(=O)N[C@@H](CC(N)=O)C(=O)N[C@@H](CC(=O)O)C(=O)N[C@@H]1C(=O)NCC(=O)N[C@@H](CCCN)C(=O)N[C@@H](CC(=O)O)C(=O)N[C@H](C)C(=O)N[C@@H](CC(=O)O)C(=O)NCC(=O)N[C@H](CO)C(=O)N[C@@H]([C@H](C)CC(=O)O)C(=O)N[C@@H](CC(=O)c2ccccc2N)C(=O)O[C@@H]1C [DAPTOMYCIN] | > 32 |  | > 32 | > 32 | > 32 |  | 16 (≈ 9.87 µM) |  | 2 (≈ 1.23 µM) | 4 (≈ 2.47 µM) | 16 (≈ 9.87 µM) |
